{"source": "paper PMC12528448", "about": "“Resistance to CDK7 inhibitors directed by acquired mutation of a conserved residue in cancer cells” (The EMBO Journal, 2025)", "format_in_all_cases": "cell-based, human", "key": {"[1]": {"system": "22Rv1-SamR cells", "experiment": "Growth assay (SRB), Samuraciclib-resistant 22Rv1", "conditions": "4 days; for % Growth: 22Rv1 SamR, biological reps", "protocol": "(§1) To determine the IC50 of drug treatments on growth, cells were seeded in 96-well culture plates. Two days after seeding, the cells were treated with increasing concentrations of drugs and incubated for 4 days. Cell number was determined using the SRB assay (Skehan et al, [1990]), and IC50 values were calculated using non-linear regression curve fitting in GraphPad Prism v10. For all other growth experiments, cells were seeded into 96-well plates, and appropriate drugs were added 2 days after seeding. Cells were then incubated in an IncuCyte Zoom live-cell imager, with cell confluency measured every 6 h. Cell doubling times were determined by non-linear curve fitting (exponential growth equation) in GraphPad Prism v10."}, "[2]": {"system": "MCF7-CDK7-D97N cells", "experiment": "Growth assay (SRB), MCF7 CDK7-D97N knock-in", "conditions": "4 days; for % Growth: MCF7 CDK7 D99N, biological reps", "protocol": "as §1\nAlt-R^TM S.p. Cas9 nuclease V3, Alt-R CRISPR-Cas9 crRNA, TracrRNA and the donor templates were obtained from Integrated DNA Technologies. […] Cells were treated with 0.7 µM of Alt-R HDR Enhancer V2 to improve HRD efficiency. Sequences of the CRISPRs in the crRNA and the donor templates are shown in the Reagents and tools table. Donor templates were designed to include non-coding substitutions to aid genome DNA PCR for identifying knock-in events and to facilitate cloning; these substitutions are noted in the Reagents and tools table."}, "[3]": {"system": "22Rv1 cells", "experiment": "IncuCyte confluency growth, 22Rv1", "conditions": "1.25µM Samuraciclib", "protocol": "as §1"}, "[4]": {"system": "22Rv1-SamR cells", "experiment": "IncuCyte confluency growth, 22Rv1-SamR", "conditions": "22Rv1-SamR; for % Confluency: 1.25µM Samuraciclib", "protocol": "as §1"}, "[5]": {"system": "22Rv1 homozygous CDK7-D97N CL3 cells", "experiment": "IncuCyte confluency growth, 22Rv1 homozygous CDK7-D97N CL3", "conditions": "for % Confluency: 1.25µM Samuraciclib", "protocol": "as §1"}}, "note": "Where “and” joins values, the source holds several entries; their conditions need not be identical. Identical values can stand only once.", "data": [{"smiles": "CC(C)c1cnn2c(NCc3ccccc3)cc(NC[C@H]3CCNC[C@@H]3O)nc12", "note": "[Samuraciclib]", "values": [{"measurement": "% Growth", "setting": "[1]; Log10 Conc. (nM) 0.09", "value": "94.72% and 90.72% and 99.75%"}, {"measurement": "% Growth", "setting": "[1]; Log10 Conc. (nM) 0.69", "value": "90.82% and 97.87% and 95.29%"}, {"measurement": "% Growth", "setting": "[1]; Log10 Conc. (nM) 1.29", "value": "89.73% and 89.03% and 90.50%"}, {"measurement": "% Growth", "setting": "[1]; Log10 Conc. (nM) 1.89", "value": "86.74% and 81.44% and 88.23%"}, {"measurement": "% Growth", "setting": "[1]; Log10 Conc. (nM) 2.49", "value": "85.25% and 77.93% and 90.16%"}, {"measurement": "% Growth", "setting": "[1]; Log10 Conc. (nM) 3.10", "value": "36.34% and 46.19% and 56.19%"}, {"measurement": "% Growth", "setting": "[1]; Log10 Conc. (nM) -0.52", "value": "93.63% and 92.01% and 97.14%"}, {"measurement": "IC50", "setting": "[1]; Homo sapiens, 96 h, 22Rv1-SamR, SRB, read-out: IC50, growth inhibition", "value": 1720, "unit": "nM"}, {"measurement": "IC50", "setting": "[2]; Homo sapiens, 96 h, MCF7-CDK7-D97N, SRB", "value": 549, "unit": "nM"}, {"measurement": "% Growth", "setting": "[2]; Log10 Conc. (nM) 0.09", "value": "93.84% and 106.04% and 113.40% and 105.52%"}, {"measurement": "% Growth", "setting": "[2]; Log10 Conc. (nM) 0.69", "value": "86.29% and 99.08% and 100.28% and 99.62%"}, {"measurement": "% Growth", "setting": "[2]; Log10 Conc. (nM) 1.29", "value": "88.99% and 86.43% and 96.17% and 90.33%"}, {"measurement": "% Growth", "setting": "[2]; Log10 Conc. (nM) 1.89", "value": "85.74% and 86.71% and 90.03% and 87.55%"}, {"measurement": "% Growth", "setting": "[2]; Log10 Conc. (nM) 2.49", "value": "75.98% and 70.58% and 83.78% and 70.72%"}, {"measurement": "% Growth", "setting": "[2]; Log10 Conc. (nM) -0.52", "value": "91.39% and 95.24% and 109.01% and 102.90%"}, {"measurement": "% Confluency", "setting": "[3]; 22Rv1, 0 hours", "value": "11.09% and 19.39% and 18.69%"}, {"measurement": "% Confluency", "setting": "[3]; 22Rv1, 6 hours", "value": "11.39% and 20.88% and 20.07%"}, {"measurement": "% Confluency", "setting": "[3]; 22Rv1, 12 hours", "value": "11.53% and 22.21% and 21.45%"}, {"measurement": "% Confluency", "setting": "[3]; 22Rv1, 18 hours", "value": "12.38% and 23.96% and 23.27%"}, {"measurement": "% Confluency", "setting": "[3]; 22Rv1, 24 hours", "value": "12.59% and 24.76% and 24.14%"}, {"measurement": "% Confluency", "setting": "[3]; 22Rv1, 72 hours", "value": "18.17% and 36.04% and 35.50%"}, {"measurement": "% Confluency", "setting": "[3]; 22Rv1, 78 hours", "value": "18.89% and 36.95% and 36.29%"}, {"measurement": "% Confluency", "setting": "[3]; 22Rv1, 84 hours", "value": "19.31% and 37.65% and 37.05%"}, {"measurement": "% Confluency", "setting": "[3]; 22Rv1, 90 hours", "value": "19.76% and 38.15% and 37.44%"}, {"measurement": "% Confluency", "setting": "[3]; 22Rv1, 96 hours", "value": "20.21% and 38.65% and 37.90%"}, {"measurement": "% Confluency", "setting": "[3]; 22Rv1, 114 hours", "value": "21.28% and 39.48% and 38.59%"}, {"measurement": "% Confluency", "setting": "[3]; 22Rv1, 120 hours", "value": "21.53% and 39.86% and 38.66%"}, {"measurement": "% Confluency", "setting": "[3]; 22Rv1, 126 hours", "value": "21.77% and 39.89% and 38.66%"}, {"measurement": "% Confluency", "setting": "[3]; 22Rv1, 132 hours", "value": "21.94% and 40.00% and 38.90%"}, {"measurement": "% Confluency", "setting": "[3]; 22Rv1, 138 hours", "value": "22.18% and 40.24% and 38.99%"}, {"measurement": "% Confluency", "setting": "[3]; 22Rv1, 144 hours", "value": "22.26% and 40.34% and 39.26%"}, {"measurement": "% Confluency", "setting": "[4]; 0 hours", "value": "9.95% and 14.33% and 14.57%"}, {"measurement": "% Confluency", "setting": "[4]; 6 hours", "value": "10.40% and 16.13% and 16.29%"}, {"measurement": "% Confluency", "setting": "[4]; 12 hours", "value": "11.65% and 17.66% and 17.87%"}, {"measurement": "% Confluency", "setting": "[4]; 18 hours", "value": "12.68% and 19.79% and 20.05%"}, {"measurement": "% Confluency", "setting": "[4]; 24 hours", "value": "14.19% and 22.35% and 22.55%"}, {"measurement": "% Confluency", "setting": "[4]; 30 hours", "value": "15.61% and 24.60% and 24.68%"}, {"measurement": "% Confluency", "setting": "[4]; 36 hours", "value": "16.94% and 26.20% and 26.26%"}, {"measurement": "% Confluency", "setting": "[4]; 42 hours", "value": "17.81% and 27.46% and 27.71%"}, {"measurement": "% Confluency", "setting": "[4]; 48 hours", "value": "18.38% and 28.92% and 29.43%"}, {"measurement": "% Confluency", "setting": "[4]; 54 hours", "value": "19.67% and 30.91% and 31.32%"}, {"measurement": "% Confluency", "setting": "[4]; 60 hours", "value": "20.82% and 32.87% and 33.32%"}, {"measurement": "% Confluency", "setting": "[4]; 66 hours", "value": "22.29% and 34.64% and 35.33%"}, {"measurement": "% Confluency", "setting": "[4]; 72 hours", "value": "23.74% and 36.43% and 37.12%"}, {"measurement": "% Confluency", "setting": "[4]; 78 hours", "value": "25.50% and 38.39% and 39.15%"}, {"measurement": "% Confluency", "setting": "[4]; 84 hours", "value": "27.27% and 40.40% and 41.13%"}, {"measurement": "% Confluency", "setting": "[4]; 90 hours", "value": "29.10% and 42.68% and 43.52%"}, {"measurement": "% Confluency", "setting": "[4]; 96 hours", "value": "31.07% and 45.25% and 45.93%"}, {"measurement": "% Confluency", "setting": "[4]; 114 hours", "value": "38.05% and 53.22% and 54.00%"}, {"measurement": "% Confluency", "setting": "[4]; 120 hours", "value": "40.50% and 56.05% and 56.55%"}, {"measurement": "% Confluency", "setting": "[4]; 126 hours", "value": "43.34% and 58.82% and 59.09%"}, {"measurement": "% Confluency", "setting": "[4]; 132 hours", "value": "46.08% and 61.31% and 61.57%"}, {"measurement": "% Confluency", "setting": "[4]; 138 hours", "value": "48.67% and 63.52% and 63.85%"}, {"measurement": "% Confluency", "setting": "[4]; 144 hours", "value": "51.40% and 65.10% and 65.55%"}, {"measurement": "Growth inhibition over time", "setting": "[4]; IncuCyte confluency, samuraciclib at 1.35 µM", "value": "considerably less growth inhibited"}, {"measurement": "% Confluency", "setting": "[5]; CDK7D97N CL3, 0 hours", "value": "11.15% and 16.69% and 15.87%"}, {"measurement": "% Confluency", "setting": "[5]; CDK7D97N CL3, 6 hours", "value": "12.67% and 19.64% and 18.89%"}, {"measurement": "% Confluency", "setting": "[5]; CDK7D97N CL3, 12 hours", "value": "14.00% and 21.38% and 20.49%"}, {"measurement": "% Confluency", "setting": "[5]; CDK7D97N CL3, 18 hours", "value": "14.90% and 23.74% and 22.71%"}, {"measurement": "% Confluency", "setting": "[5]; CDK7D97N CL3, 24 hours", "value": "16.23% and 26.69% and 25.53%"}, {"measurement": "% Confluency", "setting": "[5]; CDK7D97N CL3, 30 hours", "value": "17.78% and 29.17% and 27.88%"}, {"measurement": "% Confluency", "setting": "[5]; CDK7D97N CL3, 36 hours", "value": "18.86% and 30.89% and 29.55%"}, {"measurement": "% Confluency", "setting": "[5]; CDK7D97N CL3, 42 hours", "value": "19.43% and 32.04% and 30.87%"}, {"measurement": "% Confluency", "setting": "[5]; CDK7D97N CL3, 48 hours", "value": "20.15% and 33.30% and 32.45%"}, {"measurement": "% Confluency", "setting": "[5]; CDK7D97N CL3, 54 hours", "value": "21.35% and 35.23% and 34.41%"}, {"measurement": "% Confluency", "setting": "[5]; CDK7D97N CL3, 60 hours", "value": "22.64% and 37.22% and 36.36%"}, {"measurement": "% Confluency", "setting": "[5]; CDK7D97N CL3, 66 hours", "value": "23.89% and 39.05% and 38.37%"}, {"measurement": "% Confluency", "setting": "[5]; CDK7D97N CL3, 72 hours", "value": "25.25% and 40.82% and 40.29%"}, {"measurement": "% Confluency", "setting": "[5]; CDK7D97N CL3, 78 hours", "value": "26.70% and 42.56% and 42.42%"}, {"measurement": "% Confluency", "setting": "[5]; CDK7D97N CL3, 84 hours", "value": "28.04% and 44.37% and 44.58%"}, {"measurement": "% Confluency", "setting": "[5]; CDK7D97N CL3, 90 hours", "value": "29.44% and 46.55%"}, {"measurement": "% Confluency", "setting": "[5]; CDK7D97N CL3, 96 hours", "value": "30.80% and 48.80% and 48.76%"}, {"measurement": "% Confluency", "setting": "[5]; CDK7D97N CL3, 114 hours", "value": "35.00% and 54.89% and 54.85%"}, {"measurement": "% Confluency", "setting": "[5]; CDK7D97N CL3, 120 hours", "value": "36.47% and 56.68%"}, {"measurement": "% Confluency", "setting": "[5]; CDK7D97N CL3, 126 hours", "value": "38.04% and 58.51% and 58.53%"}, {"measurement": "% Confluency", "setting": "[5]; CDK7D97N CL3, 132 hours", "value": "39.56% and 60.46% and 60.48%"}, {"measurement": "% Confluency", "setting": "[5]; CDK7D97N CL3, 138 hours", "value": "41.00% and 62.13% and 62.12%"}, {"measurement": "% Confluency", "setting": "[5]; CDK7D97N CL3, 144 hours", "value": "42.51% and 63.49% and 63.85%"}, {"measurement": "Growth inhibition over time", "setting": "[5]; 22Rv1 homozygous CDK7-D97N clone, IncuCyte confluency, samuraciclib at 1.35 µM", "value": "considerably less growth inhibited"}]}]}
